Results as given in US8629116B2, “Method for inducing a TRIF-bias” (priority 2008, dated 2014).
Like-named read-outs stand apart in the source and are kept apart here.

Tests used:
Assay type in all cases: cell-based
[1] = tested on: human peripheral blood mononuclear cells (PBMCs); assay: Cytokine/chemokine induction in fresh human PBMCs
Procedure: (§1) Peripheral blood mononuclear cells (PBMCs) are isolated from the blood of healthy donors via a Ficoll Hypaque 1.077 gradient and treated with agonists or are used to isolate adherent monocytes in monocyte media (RPMI 1640 (ATCC), 10% human AB serum (Lonza/BioWhittaker), 100 U/mL penicillin/100 ug/mL streptomycin (Sigma), 50 uM 2-mercaptoethanol (Sigma) as described (Stover et al. 4440-49; Kawai et al. 5887-94; Gervassi et al. 7231-39). Monocyte-derived macrophages are produced by incubating adherent monocytes for 5 days in monocyte media with 50 ng/mL rhM-CSF (R&D Systems) with media changes at day 3 and day 5 before agonist treatment. Monocyte-derived dendritic cells (DC) are produced by incubating adherent monocytes for 7 days in monocyte media with 10 ng/mL rhGM-CSF and 10 ng/mL rhIL-4 (R&D Systems) with media changes on day 3 and day 6.
Expression of TNFα and MIP-1α are dependent upon signaling through the TLR4 adaptor, MyD88, while expression of IP-10 and RANTES are dependent upon signaling through the TLR4 adaptor, TRIF/TICAM-1 (Hoebe et al, Kawai et al).

[2] = tested on: human monocyte-derived dendritic cells; assay: IL-12p70 and IL-23 induction in human monocyte-derived dendritic cells
Procedure: as §1
Induction of inflammatory cytokines and maturation of dendritic cells (DC) contribute to the promotion of a robust immune response during the administration of an adjuvanted vaccine. Therefore, the capacity of CRX527 and CRX-547 to induce IL-12p70 in human DCs is compared. The induction of IL-12p70 promotes the development of the Th1 helper T cell lineage and favors development of a cell-mediated immune response (Goriely, Neurath, and Goldman 81-86; Gutcher and Becher 1119-27). […]

TLR4 receptor complex = target: T1, TLR4 receptor complex (Homo sapiens, UniProt O00206+Q9Y6Y9); assay: Inhibition of CRX-527- or LPS-induced cytokines by CRX-547 in primary human adherent monocytes; conditions: for IC50: added simultaneously
T1 construct: endogenous in cells; host or cells: primary human adherent monocytes isolated from PBMCs of healthy donors
T1 sequence (O00206 24-839): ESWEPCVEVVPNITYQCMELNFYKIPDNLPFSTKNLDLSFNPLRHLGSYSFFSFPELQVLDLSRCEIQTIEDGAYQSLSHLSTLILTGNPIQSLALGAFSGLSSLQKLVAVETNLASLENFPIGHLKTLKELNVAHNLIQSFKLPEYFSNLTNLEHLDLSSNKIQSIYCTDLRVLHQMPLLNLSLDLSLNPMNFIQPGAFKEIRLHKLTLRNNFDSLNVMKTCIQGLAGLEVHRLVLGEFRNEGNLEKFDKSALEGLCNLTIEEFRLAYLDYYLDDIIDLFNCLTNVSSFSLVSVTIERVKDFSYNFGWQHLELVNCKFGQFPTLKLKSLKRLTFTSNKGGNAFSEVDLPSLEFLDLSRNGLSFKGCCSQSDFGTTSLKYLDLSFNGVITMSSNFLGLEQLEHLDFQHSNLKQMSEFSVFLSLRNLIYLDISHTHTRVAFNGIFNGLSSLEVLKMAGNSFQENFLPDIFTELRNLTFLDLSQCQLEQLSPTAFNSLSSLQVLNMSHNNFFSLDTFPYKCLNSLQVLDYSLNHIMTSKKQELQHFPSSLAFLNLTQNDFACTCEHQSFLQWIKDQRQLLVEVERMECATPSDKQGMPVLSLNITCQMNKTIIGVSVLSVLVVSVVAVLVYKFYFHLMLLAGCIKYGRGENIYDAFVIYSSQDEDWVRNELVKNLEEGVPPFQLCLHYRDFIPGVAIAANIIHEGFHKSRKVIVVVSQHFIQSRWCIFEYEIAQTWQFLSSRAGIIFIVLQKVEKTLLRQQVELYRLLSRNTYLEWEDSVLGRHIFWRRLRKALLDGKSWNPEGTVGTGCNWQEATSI
T1 sequence (Q9Y6Y9 19-160): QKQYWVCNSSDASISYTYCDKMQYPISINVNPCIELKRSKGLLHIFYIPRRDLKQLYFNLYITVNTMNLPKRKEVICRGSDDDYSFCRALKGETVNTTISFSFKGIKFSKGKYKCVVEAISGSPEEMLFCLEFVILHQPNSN
Procedure: as §1
CRX-527 signals through the TLR4/MD2 receptor complex leading to activation of transcription factors that lead to induction of cytokines and chemokines. […] (FIG. 10).
To that end, human primary monocytes are treated with a dose range of CRX-527 in the presence of increasing concentrations of CRX-547.
The resulting dose-response curves are fit with a 4 parameter logistic equation.
Plotting the log EC50 shift (DR-1) for each concentration of CRX-547 versus the log of the concentration of CRX-547 (Schild regression) allows us to compare the calculated affinity (Kbapp) with the EC50 for CRX-547 calculated from the CRX-547 and CRX-527 dose-response curve. […] (FIG. 10B.)

[3] = target: T2, muTLR4, muMD-2, and muCD14 (Mus musculus, UniProt Q9JHF9+Q9QUK6); assay: NFκB reporter activity in HEK293 cells transfected with muTLR4, muMD-2, muCD14; conditions: HEK293 muTLR4/muMD-2/muCD14
T2 construct: expressed in transfected cells; host or cells: HEK293
T2 sequence (Q9QUK6 26-835): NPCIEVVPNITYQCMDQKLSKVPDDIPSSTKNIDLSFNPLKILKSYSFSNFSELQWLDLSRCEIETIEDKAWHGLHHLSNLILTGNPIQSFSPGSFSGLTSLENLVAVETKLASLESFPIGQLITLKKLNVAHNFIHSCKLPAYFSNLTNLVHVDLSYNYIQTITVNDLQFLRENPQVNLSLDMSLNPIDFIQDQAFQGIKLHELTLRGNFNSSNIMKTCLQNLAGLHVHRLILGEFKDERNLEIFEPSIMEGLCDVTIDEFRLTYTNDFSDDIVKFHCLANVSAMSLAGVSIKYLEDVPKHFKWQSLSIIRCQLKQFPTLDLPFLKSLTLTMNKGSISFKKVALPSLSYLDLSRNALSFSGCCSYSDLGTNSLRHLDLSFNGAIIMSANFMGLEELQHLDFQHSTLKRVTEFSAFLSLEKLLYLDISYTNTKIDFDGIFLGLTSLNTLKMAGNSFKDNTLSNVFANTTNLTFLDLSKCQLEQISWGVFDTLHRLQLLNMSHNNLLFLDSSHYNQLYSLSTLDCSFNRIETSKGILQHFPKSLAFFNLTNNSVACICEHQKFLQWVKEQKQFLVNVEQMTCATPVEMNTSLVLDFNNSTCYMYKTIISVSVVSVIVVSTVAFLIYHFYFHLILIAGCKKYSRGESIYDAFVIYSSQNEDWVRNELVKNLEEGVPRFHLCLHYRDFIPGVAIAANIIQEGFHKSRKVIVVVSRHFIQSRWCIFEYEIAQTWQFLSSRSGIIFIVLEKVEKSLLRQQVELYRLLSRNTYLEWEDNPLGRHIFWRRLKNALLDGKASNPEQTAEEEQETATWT
T2 sequence (Q9JHF9 19-160): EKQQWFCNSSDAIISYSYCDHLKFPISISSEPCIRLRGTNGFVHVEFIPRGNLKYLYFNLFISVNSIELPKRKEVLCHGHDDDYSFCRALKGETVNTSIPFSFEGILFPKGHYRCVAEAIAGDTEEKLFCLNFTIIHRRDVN

[4] = compared among LPS, CRX-527, CRX-547

SMILES: CCCCCCCCCCCC(CC(=O)NC(COC1OC(CO)C(OP(=O)(O)O)C(OC(=O)CC(CCCCCCCCCCC)OC(=O)CCCCCCCCC)C1NC(=O)CC(CCCCCCCCCCC)OC(=O)CCCCCCCCC)C(=O)O)OC(=O)CCCCCCCCC.CCN(CC)CC (stereo not shown) [CRX-547]
- induction of MIP-1α (MyD88-dependent) [1, 4]: significantly lower levels
- induction of TNFα (MyD88-dependent) [1, 4]: significantly lower levels
- induction of IP-10 (TRIF-dependent) ([1]; relative to CRX-527 and LPS): comparable levels
- induction of RANTES (TRIF-dependent) ([1]; relative to CRX-527 and LPS): comparable levels
- IL-23 expression ([2]; dendritic cells, compared with CRX-527): reduced virtually to base-line levels
- IL-12p70 response ([2]; human monocyte-derived DC, compared to CRX-527 and LPS): significantly reduced
- effect of CRX-547 on MCP-1 (TRIF-dependent) induction by fixed CRX-527 or LPS (TLR4 receptor complex; at higher concentrations of CRX-547): increased additively
- IC50 (TLR4 receptor complex; fixed CRX-527 100 nM, read-out: IC50 for inhibition of TNFα induction by CRX-527): 0.048 ± 0.03 µM
- IC50 (TLR4 receptor complex; fixed LPS 100 nM, read-out: IC50 for inhibition of TNFα induction by LPS): 0.018 ± 0.012 µM
- effect of CRX-547 on TNFα induction by fixed concentration of CRX-527 or LPS (TLR4 receptor complex; increasing CRX-547 added prior to CRX-527 or LPS): inhibited
- agonist character for induction of MyD88-dependent cytokines/chemokines (TLR4 receptor complex; relative to CRX-527 and LPS, monocytic cells): partial agonist
- Kd (TLR4 receptor complex; shift of CRX-527-induced TNFα dose-response curves, read-out: affinity estimate (Kbapp) by Schild regression): 0.00033 µM
- NFκB reporter activity [3]: more similar to CRX-527 and LPS
